pIC50: −log10 of the molar value.
Columns and labels:
[1] = Fluorescence emission, quantum yield and lifetime; format: physicochemical; settings: in ethanol
Method: The fluorescence emission spectra were recorded in the homemade setup composed of a Horiba-Jobin Fluoromax 4, used to excite the samples, connected to a sample holder through an optical fiber. In the sample holder, perpendicular to excitation fiber, an optical fiber is connected to drive the emission light to the spectrophotometer detector Avantes model SensLine, provided with AvaSoft 7.7.2. The excitation slit was set at 2 mm and the integration time was 3 s, with average number of 3. The spectra were collected from 200 nm up to 1100 nm using standard cuvettes of 1 cm of optical path. Fluorescence quantum yields (ΦF) were obtained comparing the integrated fluorescence of the samples with that of a reference fluorimetric compound with known ΦF.
The fluorescence lifetime was determined in homemade equipment composed of a LED that produces a light pulse for exciting the sample, a sample holder, detector and optics. […]
This is indicative of negligible aggregation between the molecules, which exist mostly as monomers at these concentrations in the solvents studied. […] The same table also presents triplet lifetimes (τT) in air and N2 saturated solutions, fluorescence lifetime (τS), the quantum yields of fluorescence (ΦF), triplet state formation (ΦT), and singlet oxygen generation (ΦΔ) in ethanol, and photodegradation quantum yield (Φpd) in methanol:PBS (3:2). […]

[2] = n-Octanol:PBS partition ratio (shake-flask); format: physicochemical
Text: a modification of the shake-flask method was employed to determine the equilibrium concentrations of the photosensitizer in n-octanol and in phosphate-buffered saline (PBS) mixed in equal volumes, using the typical fluorescence band of the same photosensitizer and calibration curves.
This example describes the evaluation of in vitro phototoxicity of a carboxamide bacteriochlorin with formula IX after light irradiation, and their potential for PDT application in the treatment of acne vulgaris. The phototoxicity was measured according to the description in the Materials and Methods section. The n-octanol:PBS partition ratio of IX is POW=2.9±0.5. An adequate formulation for this carboxamide bacteriochlorin is PEG400:DMSO (55:45). The phototoxicity of the test compound is proportional to the inhibition of P. acnes viability relative to the non-treated control, and is represented in FIG. 5 in the form of CFU reduction as a function of photosensitizer concentration for the light doses of 4 and 10 J/cm^2.

[3] = system: CT26 (mouse colon adenocarcinoma) cell line; assay: In vitro phototoxicity / dark toxicity towards CT26 cells; format: cell-based
Method: Phototoxicity towards cancer cell lines was evaluated in vitro using A549 (human lung adenocarcinoma) and CT26 (mouse colon adenocarcinoma) cell lines. The cells were cultured in Dulbecco's modified Eagles's medium (DMEM) supplemented with 10% heat-inactivated fetal bovine serum and 1% penicillin. Cells were plated at a density of 20,000/well and 15,000/well respectively, in flat-bottom 96-well plates. On the following day, diluted solutions of the test compound were prepared (1 mM stock) and added to the cells for 30-min incubation. […] The wells were washed two times with PBS and irradiated after 30-min of incubation using the LED light described above. Light dose was 1 J/cm^2. The medium was replaced with fresh one after irradiation and the plates were incubated for 24 h, at which time the cellular viability was assessed by resazurin method using a microplate spectrophotometer (Synergy HT Biotek).
This example describes the evaluation of in vitro phototoxicity of a carboxamide bacteriochlorin with formula IX after light irradiation, and their potential for PDT of cancer. The formulation employed was the same as that of Example 4. […] The phototoxicity was measured according to the description in the Materials and Methods section. The phototoxicity of the test compound was assessed in terms of the percentage of survival of the cells for various concentrations of the test compound incubated for 30 min, followed by washings with PBS, addition of the culture medium and illumination with a light dose of 1 J/cm^2.

[4] = Skin permeation: depth by confocal fluorescence microscopy; format: in vitro ADME, pig; settings: in 90 minutes, topical formulation
Method: Skin permeation was evaluated using a topical formulation containing benzyl alcohol (23%), Kolliphor EL (17%), Transcutol (50%) and water (10%). The photosensitizer added to this formulation corresponded to 1.85% of the mass before its addition, and the gelling agent (Aerosil 200) added corresponded to 5% of the mass before its addition. The photosensitizer was first dissolved in Transcutol and exposed to 3 min of vortex and 5 min of ultrasounds. A mixture of benzyl alcohol and Kolliphor EL was then added. Immediately after, it was mixed in an IKA MIXER at 200 rpm for 5 min and water was added drop-by-drop for 10 min. Finally, the gelling agent, Aerosil 200, was mixed in and the microemulsion gel was obtained. Skin permeation studies were performed in pig skin using samples collected from 5 months old pigs. The hair was removed as well as the underlying fatty layer, before the permeation studies.
This example describes the permeation of carboxamide bacteriochlorin with formula IX in pig skin. The topical formulation and the animal model were described in the Materials and Methods section. The permeation was assessed both in terms of the amount of photosensitizer in the skin after designated times of contact between the topical formulation and the skin (incubation time) and in terms of the depth of the permeation in the skin. […]

[5] = system: CT26 subcutaneous tumors; assay: In vivo antitumor PDT of CT26 subcutaneous tumors in BALB/c mice; settings: 15 min drug-to-light interval

For CNC(=O)c1c2nc(c(-c3c(F)cccc3F)c3ccc(cc4nc(c(-c5c(F)cccc5F)c5ccc1[nH]5)CC4)[nH]3)CC2 [formula IX, 5-methylcarboxamide-10,20-bis-(2,6-difluorophenyl)bacteriochlorin], the “ΦF fluorescence quantum yield” value [1] was 0.20, the τS fluorescence lifetime [1] was 3.2 ns and the “Log POW” value [2] was 2.9. The “n-octanol:PBS partition ratio POW” value [2] was 2.9±0.5, the pIC50 ([3]; 30 min incubation, irradiated with 1 J/cm^2) was 8.24 and the “photosensitizer concentration at which nearly all cells are killed” value ([3]; CT26, 30 min incubation, 1 J/cm^2 (FIG. 6)) was 50 nM. The “concentration with no signs of toxicity in the dark” value ([3]; CT26, incubation in the dark for 30 min) was “up to 40 μM”, the “depth of penetration in the skin” value [4] was 40 μm and the cure ([5]; 0.15 mg/kg i.v., 40 J/cm^2) was 100%. For the same compound, the “tolerability of PDT” value ([5]; 0.15 mg/kg i.v., 40 J/cm^2) was “very well tolerated”, the tumor response ([5]; 0.15 mg/kg i.v., 40 J/cm^2) was “complete regression” and the “time post-PDT by which animals died of acute response to the treatment” value ([5]; 0.3 mg/kg i.v., 40 J/cm^2 at 749 nm) was “less than 72 h”.

Source: US10450322B2, “Low molecular weight derivatives of carboxamide halogenated porphyrins, namely chlorins and bacteriochlorins, and their applications thereof” (LUZITIN, S.A., priority 2015, dated 2019)
